pIC50: −log10 of the molar value. Values belong to the compound of their own block, whether it stands above or below them.
Key:
SiHa [1] = assay: Antiproliferative activity against human SiHa cells assessed as cell viability incubated for 48 hrs by MTT assay; assay type: functional, cell-based
HeLa = assay: Antiproliferative activity against human HeLa cells assessed as cell viability incubated for 48 hrs by MTT assay; assay type: functional, cell-based
Ca-Ski = assay: Antiproliferative activity against human Ca-Ski cells assessed as cell viability incubated for 48 hrs by MTT assay; assay type: functional, cell-based
[2] = Cytotoxicity against human L02 cells assessed as cell viability incubated for 48 hrs by MTT assay; assay type: toxicity, cell-based
[3] = Cytotoxicity against human HEK293T cells assessed as cell viability incubated for 48 hrs by MTT assay; assay type: toxicity, cell-based, HEK-293T
SiHa [4] = assay: Induction of apoptosis in human SiHa cells assessed as late apoptotic cells at 16 uM incubated for 24 hr by flow cytometry based annexin V-FITC/PI double-staining analysis (reference value: 8.67%); assay type: functional
SiHa [5] = assay: Induction of apoptosis in human SiHa cells assessed as early apoptotic cells at 16 uM incubated for 24 hr by flow cytometry based annexin V-FITC/PI double-staining analysis (reference value: 2.95%); assay type: functional
SiHa [6] = assay: Induction of cell cycle arrest in human SiHa cells assessed as accumulation cells at G0/G1 phase at 16 uM measured after 24 hrs by flow cytometry (reference value: 80.45%); assay type: functional
SiHa [7] = assay: Induction of cell cycle arrest in human SiHa cells assessed as accumulation cells at G2/M phase at 16 uM measured after 24 hrs by flow cytometry (reference value: 5.24%); assay type: functional
SiHa [8] = assay: Induction of cell cycle arrest in human SiHa cells assessed as accumulation cells at S phase at 16 uM measured after 24 hrs by flow cytometry (reference value: 14.31%); assay type: functional
[9] = Acute toxicity in AB-wild type zebrafish embryo assessed as mortalities at 400 uM measured after 96 hrs; parameters: species or system Danio rerio; conditions: in vivo, read-out: Activity
[10] = Acute toxicity in AB-wild type zebrafish embryo assessed as malformation rate at 400 uM measured after 96 hrs; parameters: species or system Danio rerio; conditions: in vivo

SMILES: Nc1cc(C(F)(F)F)c(-c2cc(N3CCOCC3)nc(N3CCOCC3)n2)cn1 [BUPARLISIB]
pIC50 (SiHa [1]): 4.93 | pIC50 (HeLa): 5.04 | pIC50 (Ca-Ski): 6.13 | IC50 at 48 h [2]: 59.2 µM | IC50 at 48 h [3]: 6.11 µM | Activity (SiHa [4]): 7.83% | Activity (SiHa [5]): 10.27% | Activity (SiHa [6]): 62.27% | Activity (SiHa [7]): 28.47% | Activity (SiHa [8]): 11.27% | mortality at 96 h, 400 µM [9]: 0% | Activity [10]: 0%

SMILES: COc1cc(-c2nc3cc(N4CCOCC4)c(C#Cc4ccccc4Cl)cc3[nH]2)cc(OC)c1OC
pIC50 (SiHa [1]): 5.11 | pIC50 (HeLa): 4.98 | pIC50 (Ca-Ski): 4.87 | IC50 at 48 h [2]: > 100 µM | IC50 at 48 h [3]: 5.37 µM

SMILES: COc1cc(OC)c(-c2nc3cc(N4CCOCC4)c(C#Cc4ccccc4Cl)cc3[nH]2)cc1OC
pIC50 (SiHa [1]): 4.61 | pIC50 (HeLa): 4.77 | pIC50 (Ca-Ski): 4.65 | IC50 at 48 h [2]: 18.9 µM | IC50 at 48 h [3]: 0.68 µM

SMILES: COc1cc(OC)c(-c2nc3cc(N4CCOCC4)c(C#Cc4ccc(Cl)cc4)cc3[nH]2)cc1OC
pIC50 (SiHa [1]): < 4.00 | pIC50 (HeLa): 4.78 | pIC50 (Ca-Ski): < 4.00 | IC50 at 48 h [2]: > 100 µM | IC50 at 48 h [3]: 36.1 µM

SMILES: COc1cc(-c2nc3cc(N4CCOCC4)c(/C=C/C(=O)N(C)C)cc3[nH]2)cc(OC)c1OC
pIC50 (SiHa [1]): < 4.00 | pIC50 (HeLa): 4.84 | pIC50 (Ca-Ski): 4.31 | IC50 at 48 h [2]: > 100 µM | IC50 at 48 h [3]: 2.53 µM

SMILES: COc1cc(OC)c(-c2nc3cc(N4CCOCC4)c(C#Cc4ccccc4F)cc3[nH]2)cc1OC
pIC50 (SiHa [1]): 4.57 | pIC50 (HeLa): 4.70 | pIC50 (Ca-Ski): 4.94 | IC50 at 48 h [2]: 9.1 µM | IC50 at 48 h [3]: 4.83 µM

Compounds with a higher pIC50 (HeLa), results first:

pIC50 (HeLa): 5.28
SMILES: COc1cc(OC)c(-c2nc3cc(N4CCN(C)CC4)c(C#Cc4ccccc4)cc3[nH]2)cc1OC
pIC50 (SiHa [1]): 5.21 | pIC50 (Ca-Ski): < 4.00 | IC50 at 48 h [2]: 6.59 µM | IC50 at 48 h [3]: 4.07 µM

pIC50 (HeLa): 5.07
SMILES: COc1cc(-c2nc3cc(N4CCOCC4)c(C#Cc4ccccc4F)cc3[nH]2)cc(OC)c1OC
pIC50 (SiHa [1]): < 4.00 | pIC50 (Ca-Ski): 4.97 | IC50 at 48 h [2]: 6.98 µM | IC50 at 48 h [3]: 38.6 µM

pIC50 (HeLa): 5.68
SMILES: COc1ccc(C#Cc2cc3[nH]c(-c4cc(OC)c(OC)c(OC)c4)nc3cc2N2CCN(C)CC2)cc1
pIC50 (SiHa [1]): 5.50 | pIC50 (Ca-Ski): 5.86 | IC50 at 48 h [2]: 2.29 µM | IC50 at 48 h [3]: 0.41 µM

pIC50 (HeLa): 5.38
SMILES: COc1cc(-c2nc3cc(N4CCOCC4)c(/C=C/C(=O)NC(C)(C)C)cc3[nH]2)cc(OC)c1OC
pIC50 (SiHa [1]): 4.77 | pIC50 (Ca-Ski): 4.80 | IC50 at 48 h [2]: 9.92 µM | IC50 at 48 h [3]: 11.7 µM

pIC50 (HeLa): 5.46
SMILES: COc1cc(-c2nc3cc(N4CCN(C)CC4)c(C#Cc4ccc(Cl)cc4)cc3[nH]2)cc(OC)c1OC
pIC50 (SiHa [1]): 5.26 | pIC50 (Ca-Ski): 5.40 | IC50 at 48 h [2]: 2.07 µM | IC50 at 48 h [3]: 4.12 µM

Source: ChEMBL document CHEMBL5500356, “Design, synthesis, and biological evaluation of novel benzimidazole derivatives as anti-cervical cancer agents through PI3K/Akt/mTOR pathway and tubulin inhibition” (Eur J Med Chem, 2024)
